Bounds are passed on as bounds.

The source of these data is patent US11596639B2, “Substituted indole Mcl-1 inhibitors” (Vanderbilt University, priority 2016, dated 2023).

The first assay has as its system H929 human cancer cell lines. Briefly: Cellular viability / proliferation (Cell TiterGlo, 72 h). The assay is classed as cell-based. The settings on record: H929 cells, 72 h, Cell TiterGlo, 10% FBS; read-out: GI50 on cellular proliferation of H929 human cancer cell lines. How it is done: Cellular Viability of Human Tumor Cell Lines
To evaluate compound effect on cellular proliferation, cells were plated at 1,000 cells/well in 96-well tissue culture plates in a total volume of 90 μL medium supplemented with 10% FBS (Sigma, Saint Louis, Mo.). 24 hours later, 10 μL of compound (in a 2-fold serial dilution) is added to the cells for a top concentration of 50 μM and a final DMSO concentration <1%. After 72 hours, 50 μL of Cell TiterGlo (Promega, Madison, Wis., USA) reagent is added to each well and plates are incubated at room temperature, in the dark, for 30 minutes. Luminescence is measured on a BioTek Cytation 3. Luminescence values are imported into a template in XLFit (Guildford, Surrey, UK) that uses a four-parameter fit to generate an IC50 value for each compound dilution series on the plate.
For `COc1ccc(N2C[C@@H](C)n3c(c(CCCOc4cc(C)c(Cl)c(C)c4)c4ccc(Cl)c(-c5c(C)nn(C)c5C)c43)C2=O)c2c1c(C(=O)O)cn2Cc1cccc(C)n1` [Example 621, (R)-7-(7-chloro-10-(3-(4-chloro-3,5-dimethylphenoxy)propyl)-4-methyl-1-oxo-6-(1,3,5-trimethyl-1H-pyrazol-4-yl)-3,4-dihydropyrazino[1,2-a]indol-2(1H)-yl)-4-methoxy-1-((6-methylpyridin-2-yl)methyl)-1H-indole-3-carboxylic add], the GI50 was 390 nM.

Staying with this assay, now noted: Homo sapiens, NCI-H929, 72 h, read-out: GI50 on cellular proliferation of H929 human cancer cell lines, H929 cells, 72 h, Cell TiterGlo, 10% FBS.
`Cc1cc(OCCCc2c3n(c4c(-c5c(C)nn(C)c5C)c(Cl)ccc24)CCCN(c2cc(C(=O)O)c4ccn(C)c4c2)C3=O)cc(C)c1Cl` (single isomer, unassigned) [Example 431, 6-(8-Chloro-11-(3-(4-chloro-3,5-dimethylphenoxy)propyl)-1-oxo-7-(1,3,5-trimethyl-1H-pyrazol-4-yl)-4,5-dihydro-1H-[1,4]diazepino[1,2-a]indol-2(3H)-yl)-1-methyl-1H-indole-4-carboxylic acid]: the GI50 was 2900 nM. As for `Cc1cc(OCCCc2c3n(c4c(-c5c(C)nn(C)c5C)c(Cl)ccc24)CCCN(Cc2cc(C(=O)O)ccn2)C3=O)cc(C)c1Cl` [Example 43, 2-((8-Chloro-11-(3-(4-chloro-3,5-dimethylphenoxy)propyl)-1-oxo-7-(1,3,5-trimethyl-1H-pyrazol-4-yl)-4,5-dihydro-1H-[1,4]diazepino[1,2-a]indol-2(3H)-yl)methyl)isonicotinic acid], the GI50 was 9400 nM. Still for that read-out and setting: the value for `Cc1cc(OCCCc2c3n(c4c(-c5c(C)nn(C)c5C)c(Cl)ccc24)CCCN(c2ccc(C(=O)O)c4ccn(C)c24)C3=O)cc(C)c1Cl` [Example 55, 7-(8-Chloro-11-(3-(4-chloro-3,5-dimethylphenoxy)propyl)-1-oxo-7-(1,3,5-trimethyl-1H-pyrazol-4-yl)-4,5-dihydro-1H-[1,4]diazepino[1,2-a]indol-2(3H)-yl)-1-methyl-1H-indole-4-carboxylic acid] was 5700 nM; that for `Cc1cc(OCCCc2c3n(c4c(-c5c(C)nn(C)c5C)c(Cl)ccc24)CCCN(c2cn(C)c4cc(C(=O)O)ccc24)C3=O)cc(C)c1Cl` [Example 68, 3-(8-Chloro-11-(3-(4-chloro-3,5-dimethylphenoxy)propyl)-1-oxo-7-(1,3,5-trimethyl-1H-pyrazol-4-yl)-4,5-dihydro-1H-[1,4]diazepino[1,2-a]indol-2(3H)-yl)-1-methyl-1H-indole-6-carboxylic acid] was 350 nM; that for `Cc1cc(OCCCc2c3n(c4c(-c5c(C)nn(C)c5C)c(Cl)ccc24)[C@H](C)CN(c2cn(C)c4ccc(C(=O)O)cc24)C3=O)cc(C)c1Cl` [Example 76, (R)-3-(7-Chloro-10-(3-(4-chloro-3,5-dimethylphenoxy)propyl)-4-methyl-1-oxo-6-(1,3,5-trimethyl-1H-pyrazol-4-yl)-3,4-dihydropyrazino[1,2-a]indol-2(1H)-yl)-1-methyl-1H-indole-5-carboxylic acid] was < 200 nM. Still for that read-out and setting: under `Cc1cc(OCCCc2c3n(c4c(-c5c(C)nn(C)c5C)c(Cl)ccc24)CCCN(c2cn(C)c4ccc(C(=O)O)cc24)C3=O)cc(C)c1Cl` [Example 80, 3-(8-Chloro-11-(3-(4-chloro-3,5-dimethylphenoxy)propyl)-1-oxo-7-(1,3,5-trimethyl-1H-pyrazol-4-yl)-4,5-dihydro-1H-[1,4]diazepino[1,2-a]indol-2(3H)-yl)-1-methyl-1H-indole-5-carboxylic acid] stands 250 nM; under `Cc1cc(OCCCc2c3n(c4c(-c5c(C)n[nH]c5C)c(Cl)ccc24)[C@H](C)CN(c2cccc4c(C(=O)O)cn(C)c24)C3=O)cc(C)c1Cl` [Example 108, (R)-7-(7-chloro-10-(3-(4-chloro-3,5-dimethylphenoxy)propyl)-6-(3,5-dimethyl-1H-pyrazol-4-yl)-4-methyl-1-oxo-3,4-dihydropyrazino[1,2-a]indol-2(1H)-yl)-1-methyl-1H-indole-3-carboxylic acid], 880 nM.

Turning to `Cc1cc(OCCCc2c3n(c4c(-c5c(C)nn(C)c5C)c(Cl)ccc24)[C@@H](C)CN(c2cn(C)c4ccc(C(=O)O)cc24)C3=O)cc(C)c1Cl` [Example 212, (S)-3-(7-chloro-10-(3-(4-chloro-3,5-dimethylphenoxy)propyl)-4-methyl-1-oxo-6-(1,3,5-trimethyl-1H-pyrazol-4-yl)-3,4-dihydropyrazino[1,2-a]indol-2(1H)-yl)-1-methyl-1H-indole-5-carboxylic acid], the GI50 was 3400 nM. The same measure, in the same setting: the value for `Cc1cc(OCCCc2c3n(c4c(-c5c(C)nn(C)c5C)c(Cl)ccc24)[C@H](C)CN(c2cccc4c(C(N)=O)cn(C)c24)C3=O)cc(C)c1Cl` [Example 357, (R)-7-(7-Chloro-10-(3-(4-chloro-3,5-dimethylphenoxy)propyl)-4-methyl-1-oxo-6-(1,3,5-trimethyl-1H-pyrazol-4-yl)-3,4-dihydropyrazino[1,2-a]indol-2(1H)-yl)-1-methyl-1H-indole-3-carboxamide] was 2000 nM. The same measure, in the same setting: under `COc1ccc(N2C[C@@H](C)n3c(c(CCCOc4cc(C)c(Cl)c(C)c4)c4ccc(Cl)c(-c5c(C)nc(CN6CCN(C)CC6)nc5C)c43)C2=O)c2c1cc(C(=O)O)n2Cc1ccccn1` [Example 492, (R)-7-(7-Chloro-10-(3-(4-chloro-3,5-dimethylphenoxy)propyl)-6-(4,6-dimethyl-2-((4-methylpiperazin-1-yl)methyl)pyrimidin-5-yl)-4-methyl-1-oxo-3,4-dihydropyrazino[1,2-a]indol-2(1H)-yl)-4-methoxy-1-(pyridin-2-ylmethyl)-1H-indole-2-carboxylic acid] stands 360 nM.

On to `Cc1cccc(Cn2c(C(=O)O)cc3cc(OCCN(C)C)cc(N4C[C@@H](C)n5c(c(CCCOc6cc(C)c(Cl)c(C)c6)c6ccc(Cl)c(-c7c(C)nn(C)c7C)c65)C4=O)c32)n1` [Example 592, (R)-7-(7-chloro-10-(3-(4-chloro-3,5-dimethylphenoxy)propyl)-4-methyl-1-oxo-6-(1,3,5-trimethyl-1H-pyrazol-4-yl)-3,4-dihydropyrazino[1,2-a]indol-2(1H)-yl)-5-(2-(dimethylamino)ethoxy)-1-((6-methylpyridin-2-yl)methyl)-1H-indole-2-carboxylic acid], for which the GI50 came out at 880 nM. Same read-out and setting: under `Cc1cc(N2C[C@@H](C)n3c(c(CCCOc4cc(C)c(Cl)c(C)c4)c4ccc(Cl)c(-c5c(C)nn(C)c5C)c43)C2=O)c2c(c1)cc(C(=O)O)n2CCN1CCOCC1` [Example 597, (R)-7-(7-chloro-10-(3-(4-chloro-3,5-dimethylphenoxy)propyl)-4-methyl-1-oxo-6-(1,3,5-trimethyl-1H-pyrazol-4-yl)-3,4-dihydropyrazino[1,2-a]indol-2(1H)-yl)-5-methyl-1-(2-morpholinoethyl)-1H-indole-2-carboxylic acid] stands 690 nM; under `Cc1cc(OCCCc2c3n(c4c(-c5c(C)nn(C)c5C)c(Cl)ccc24)[C@H](C)CN(c2cc(N(C)C(=O)CN4CCCCC4)cc4c(C(=O)O)cn(C)c24)C3=O)cc(C)c1Cl` [Example 612, (R)-7-(7-chloro-10-(3-(4-chloro-3,5-dimethylphenoxy)propyl)-4-methyl-1-oxo-6-(1,3,5-trimethyl-1H-pyrazol-4-yl)-3,4-dihydropyrazino[1,2-a]indol-2(1H)-yl)-1-methyl-5-(N-methyl-2-(piperidin-1-yl)acetamido)-1H-indole-3-carboxylic acid], 7600 nM. Consider `COc1ccc(N2C[C@@H](C)n3c(c(CCCOc4cc(C)c(Cl)c(C)c4)c4ccc(Cl)c(-c5c(C)nn(C)c5C)c43)C2=O)c2c1c(C(=O)O)cn2Cc1cccc(C)n1` [Example 622, (R)-7-(7-chloro-10-(3-(4-chloro-3,5-dimethylphenoxy)propyl)-4-methyl-1-oxo-6-(1,3,5-trimethyl-1H-pyrazol-4-yl)-3,4-dihydropyrazino[1,2-a]indol-2(1H)-yl)-4-methoxy-1-((6-methylpyridin-2-yl)methyl)-1H-indole-3-carboxylic acid], for which the GI50 is 920 nM.

The same assay, now with this note: read-out: GI50 on cellular proliferation of H929 human cancer cell lines; H929 cells, 72 h, Cell TiterGlo, 10% FBS.
For `Cc1cc(OCCCc2c3n(c4c(-c5c(C)ncnc5C)c(C)ccc24)[C@H](C)CN(c2cccc4cc(C(=O)O)n(Cc5ccccn5)c24)C3=O)cc(C)c1Cl` (atropisomer, axis not shown) [Example 276, (R)-7-(10-(3-(4-chloro-3,5-dimethylphenoxy)propyl)-6-(4,6-dimethylpyrimidin-5-yl)-4,7-dimethyl-1-oxo-3,4-dihydropyrazino[1,2-a]indol-2(1H)-yl)-1-(pyridin-2-ylmethyl)-1H-indole-2-carboxylic acid], the GI50 is 290 nM. Same read-out and setting: the value for `Cc1cc(OCCCc2c3n(c4c(-c5c(C)nn(C)c5C)c(Cl)ccc24)CCCN(c2cc(C(=O)O)c4ccn(C)c4c2)C3=O)cc(C)c1Cl` (single isomer, unassigned) [Example 440, 6-(8-chloro-11-(3-(4-chloro-3,5-dimethylphenoxy)propyl)-1-oxo-7-(1,3,5-trimethyl-1H-pyrazol-4-yl)-4,5-dihydro-1H-[1,4]diazepino[1,2-a]indol-2(3H)-yl)-1-methyl-1H-indole-4-carboxylic acid] was 4500 nM. As for `Cc1cc(OCCCc2c3n(c4c(-c5c(C)nn(C)c5C)c(Cl)ccc24)[C@H](C)CN(c2cccc4cc(C(=O)O)ccc24)C3=O)cc(C)c1Cl` [Example 187, (R)-5-(7-Chloro-10-(3-(4-chloro-3,5-dimethylphenoxy)propyl)-4-methyl-1-oxo-6-(1,3,5-trimethyl-1H-pyrazol-4-yl)-3,4-dihydropyrazino[1,2-a]indol-2(1H)-yl)-2-naphthoic acid], the GI50 is < 200 nM.
